Test results from patent US9005636B2, “Pharmaceutical composition comprising metformin and rosuvastatin” (BCWorld Pharm Co., Ltd., priority 2009, dated 2015).

Assays:
Format in all cases: cell-based, rat
L6 muscle cells [1] = assay: Cell morphology (confluence) of L6 muscle cells by microscope; conditions: 48 hours
Procedure: (§1) Rat myoblast cell line L6 used herein was obtained from Korean Cell Line Bank. Cells were cultured until the number of cells reached 1×10^6 in T-75 flask (BD Biosciences) using DMEM (Dulbecco's Modified Eagle medium) supplemented with 4.5 g/L of D-glucose, L-glutamine, 0.11 g/L of sodium pyruvate and 10% FBS (Fetal bovine serum, Gibco; Invitrogen Corp., CA, USA). To differentiate cells, the medium with 2% HS (Horse serum, Gibco; Invitrogen Corp., CA, USA) was inoculated and the cells were incubated at 37° C. in 5% CO2 incubator (Forma scientific, Germany). The medium was replaced every 2 days and subculture was conducted every 3 to 4 days. In addition, the myoblast cells, used in this experiment, were differentiated up to 0.3×10^6 in 6 well plate (BD biosciences) before they were used. After the washing step with PBS (Gibco; Invitrogen Corp., CA, USA), the cells were used for ELISA, MTT and PCR analysis.
To compare the morphology of L6 muscle cells on the concentration of metformin, 0.5×10^5 muscle cells were seeded onto each well in 6 well plate (Falcon) and incubated at 37° C. in 5% CO2 incubator for 24 hours. 20 μM of rosuvastatin was treated and 0, 1, 10, 20, and 100 μM of metformin was treated, respectively. After 48 hours, all of them were observed using a microscope (IS-70, Olympus),

PGC-1 α = assay: ELISA of PGC-1 α protein expression
Atrogin-1 mRNA = assay: RT-PCR of Atrogin-1 mRNA in L6 muscle cells; conditions: 20 μM of rosuvastatin
Procedure: as §1
To measure the mRNA level of Atrogen-1 in muscle cells depending on concentration of metformin, the cells were homogenized in 500 μl of Trizol (Invitrogen) and 3 μg of total RNA was collected using a cell scraper. […]

Atrogin-1 = assay: ELISA of Atrogin-1 protein expression; conditions: as the concentration of rosuvastatin was increased
Procedure: as §1, with “analysis. […] Non-bound material was removed after washing four times with phosphate-buffered saline containing 0.2% tween 20 (PBS-T). The plate was washed 4 times with PBS buffer containing 0.2% Tween 20; and 200 μl of blocking solution (GenDEPOT) containing 1% BSA (Bovine Serum Albumin) with PBS was seeded onto each well and incubated for 2 hours at 4° C. […] Lastly, the absorbance was measured at 450 nm using an ELISA reader.” for “analysis.”

L6 muscle cells [2] = assay: MTT assay, viability of L6 muscle cells; conditions: 20 μM of rosuvastatin only, 48 hours
Procedure: MTT assay was carried out to determine the viability of L6 muscle cells. 1×10^4 cells were seeded onto each well in 96 well plate and incubated at 37° C. in 5% CO2 incubator for 24 hours.
20 μM of rosuvastatin was treated and 0, 1, 10, 20 and 100 μM of metformin was treated, respectively. […] Lastly, the optical density of formazan was measured at 570 nm using an ELISA Reader.

Structure (SMILES): CN(C)C(=N)N=C(N)N [metformin]
- confluence of L6 cells (L6 muscle cells [1]; 20 μM of rosuvastatin plus 1, 10, 20, 100 μM of metformin): increased as the concentration of metformin increased
- protein level of PGC-1 α compared to negative control (PGC-1 α; 0.1 μM of metformin): did not show a significant difference
- protein level of PGC-1 α (PGC-1 α; more than 1 μM of metformin): increase

Structure (SMILES): CC(C)c1nc(N(C)S(C)(=O)=O)nc(-c2ccc(F)cc2)c1/C=C/[C@@H](O)C[C@@H](O)CC(=O)O [rosuvastatin]
- mRNA expression of Atrogin-1 compared to negative control (Atrogin-1 mRNA): increased
- protein expression of Atrogin-1 (Atrogin-1): increased
- confluence of L6 cells compared to the group without treatment (L6 muscle cells [1]; 20 μM of rosuvastatin): decreased significantly
- viability of the cells (MTT) (L6 muscle cells [2]): significant decrease
